Results reported in the supplement of paper PMC10307832.

How the values were obtained:
Assay in all cases: relative viability (nuclei count vs DMSO), 5 days (fraction); higher = more cells survive
AZD5582 + Alpelisib = compound: C[C@@H](C(=O)N[C@@H](C1CCCCC1)C(=O)N2CCC[C@H]2C(=O)N[C@@H]3[C@@H](CC4=CC=CC=C34)OCC#CC#CCO[C@@H]5CC6=CC=CC=C6[C@@H]5NC(=O)[C@@H]7CCCN7C(=O)[C@H](C8CCCCC8)NC(=O)[C@H](C)NC)NC [AZD5582] + Cc1nc(NC(=O)N2CCC[C@H]2C(N)=O)sc1-c1ccnc(C(C)(C)C(F)(F)F)c1 [Alpelisib] (partner 2 µM)
In short: (§1)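 Lung cancer cell lines were pin-tool dosed in 1536-well plates on the day after seeding, with either a lone drug or a fixed anchor-drug dose plus five library-drug doses (not always all listed) in √10 steps. Nuclei were counted on 4× images after 5 days. Relative viability is the ratio of treated-well to vehicle-well nuclei counts, with each value a median of duplicate plates.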

AZD5582 + Dasatinib = compound: C[C@@H](C(=O)N[C@@H](C1CCCCC1)C(=O)N2CCC[C@H]2C(=O)N[C@@H]3[C@@H](CC4=CC=CC=C34)OCC#CC#CCO[C@@H]5CC6=CC=CC=C6[C@@H]5NC(=O)[C@@H]7CCCN7C(=O)[C@H](C8CCCCC8)NC(=O)[C@H](C)NC)NC [AZD5582] + Cc1nc(Nc2ncc(C(=O)Nc3c(C)cccc3Cl)s2)cc(N2CCN(CCO)CC2)n1 [Dasatinib] (partner 0.075 µM)
In short: as §1

Temozolomide + Foretinib = compound: Cn1nnc2c(C(N)=O)ncn2c1=O [Temozolomide] + COc1cc2c(Oc3ccc(NC(=O)C4(C(=O)Nc5ccc(F)cc5)CC4)cc3F)ccnc2cc1OCCCN1CCOCC1 [Foretinib] (partner 0.25 µM)
In short: as §1

[1] = compound: Cn1nnc2c(C(N)=O)ncn2c1=O [Temozolomide] + C[C@@H](Oc1cc(-c2cnn(C3CCNCC3)c2)cnc1N)c1c(Cl)ccc(F)c1Cl [Crizotinib] (partner 1 µM)
In short: as §1

For RERF-LC-KJ, the relative viability (AZD5582 + Alpelisib; first compound 0.005 µM) was 0.532, the relative viability (AZD5582 + Alpelisib; first compound 0.01581 µM) was 0.781 and the relative viability (AZD5582 + Alpelisib; first compound 0.05 µM) was 0.639. The relative viability (AZD5582 + Dasatinib; first compound 0.01581 µM) was 0.723, the relative viability (AZD5582 + Dasatinib; first compound 0.05 µM) was 0.696 and the relative viability (Temozolomide + Foretinib; first compound 0.2 µM) was 0.888. It also gave a relative viability (Temozolomide + Foretinib; first compound 0.6325 µM) of 0.928, a relative viability (Temozolomide + Foretinib; first compound 2 µM) of 0.875 and a relative viability (Temozolomide + Foretinib; first compound 6.325 µM) of 0.936. For the same cell line, the relative viability (Temozolomide + Foretinib; first compound 20 µM) was 0.901, the relative viability ([1]; first compound 0.2 µM) was 0.884 and the relative viability ([1]; first compound 0.6325 µM) was 0.848. The relative viability ([1]; first compound 2 µM) was 0.838, the relative viability ([1]; first compound 6.325 µM) was 0.818 and the relative viability ([1]; first compound 20 µM) was 0.833.

SK-LU-1 showed a relative viability (AZD5582 + Alpelisib; first compound 0.001581 µM) of 0.744, a relative viability (AZD5582 + Alpelisib; first compound 0.005 µM) of 0.554 and a relative viability (AZD5582 + Alpelisib; first compound 0.01581 µM) of 0.95. The relative viability (AZD5582 + Alpelisib; first compound 0.05 µM) was 0.243, the relative viability (AZD5582 + Dasatinib; first compound 0.001581 µM) was 0.147 and the relative viability (AZD5582 + Dasatinib; first compound 0.005 µM) was 0.0852. The relative viability (AZD5582 + Dasatinib; first compound 0.01581 µM) was 0.174, the relative viability (AZD5582 + Dasatinib; first compound 0.05 µM) was 0.0634 and the relative viability (Temozolomide + Foretinib; first compound 0.2 µM) was 0.954. The relative viability (Temozolomide + Foretinib; first compound 0.6325 µM) was 0.849, the relative viability (Temozolomide + Foretinib; first compound 2 µM) was 0.585 and the relative viability (Temozolomide + Foretinib; first compound 6.325 µM) was 0.444. The relative viability (Temozolomide + Foretinib; first compound 20 µM) was 0.342, the relative viability ([1]; first compound 0.2 µM) was 0.978 and the relative viability ([1]; first compound 0.6325 µM) was 1.06. The relative viability ([1]; first compound 2 µM) was 0.92, the relative viability ([1]; first compound 6.325 µM) was 0.518 and the relative viability ([1]; first compound 20 µM) was 0.463.

With SK-MES-1 the relative viability (AZD5582 + Alpelisib; first compound 0.001581 µM) was 0.773, the relative viability (AZD5582 + Alpelisib; first compound 0.005 µM) was 0.995 and the relative viability (AZD5582 + Alpelisib; first compound 0.01581 µM) was 0.808. The relative viability (AZD5582 + Alpelisib; first compound 0.05 µM) was 0.947, the relative viability (AZD5582 + Dasatinib; first compound 0.001581 µM) was 0.246 and the relative viability (AZD5582 + Dasatinib; first compound 0.005 µM) was 0.445. The relative viability (AZD5582 + Dasatinib; first compound 0.01581 µM) was 0.367, the relative viability (AZD5582 + Dasatinib; first compound 0.05 µM) was 0.279 and the relative viability (Temozolomide + Foretinib; first compound 0.2 µM) was 0.972. The relative viability (Temozolomide + Foretinib; first compound 0.6325 µM) was 1.05, the relative viability (Temozolomide + Foretinib; first compound 2 µM) was 1.09 and the relative viability (Temozolomide + Foretinib; first compound 6.325 µM) was 0.892. For the same cell line, the relative viability (Temozolomide + Foretinib; first compound 20 µM) was 0.521, the relative viability ([1]; first compound 0.2 µM) was 1.14 and the relative viability ([1]; first compound 0.6325 µM) was 0.969. It also gave a relative viability ([1]; first compound 2 µM) of 1.03, a relative viability ([1]; first compound 6.325 µM) of 0.947 and a relative viability ([1]; first compound 20 µM) of 0.997.

For SW 1573, the relative viability (AZD5582 + Alpelisib; first compound 0.001581 µM) was 0.856, the relative viability (AZD5582 + Alpelisib; first compound 0.005 µM) was 0.705 and the relative viability (AZD5582 + Alpelisib; first compound 0.01581 µM) was 0.673. It also gave a relative viability (AZD5582 + Alpelisib; first compound 0.05 µM) of 1.01, a relative viability (AZD5582 + Dasatinib; first compound 0.001581 µM) of 0.56 and a relative viability (AZD5582 + Dasatinib; first compound 0.005 µM) of 0.732. For the same cell line, the relative viability (AZD5582 + Dasatinib; first compound 0.01581 µM) was 0.573, the relative viability (AZD5582 + Dasatinib; first compound 0.05 µM) was 0.566 and the relative viability (Temozolomide + Foretinib; first compound 0.2 µM) was 0.861. For the same cell line, the relative viability (Temozolomide + Foretinib; first compound 0.6325 µM) was 0.915, the relative viability (Temozolomide + Foretinib; first compound 2 µM) was 0.79 and the relative viability (Temozolomide + Foretinib; first compound 6.325 µM) was 0.725. The relative viability (Temozolomide + Foretinib; first compound 20 µM) was 0.938, the relative viability ([1]; first compound 0.2 µM) was 0.801 and the relative viability ([1]; first compound 0.6325 µM) was 0.787. It also gave a relative viability ([1]; first compound 2 µM) of 0.82, a relative viability ([1]; first compound 6.325 µM) of 0.594 and a relative viability ([1]; first compound 20 µM) of 0.846.

Work on UMC-11 yielded a relative viability (AZD5582 + Alpelisib; first compound 0.001581 µM) of 1.05, a relative viability (AZD5582 + Alpelisib; first compound 0.005 µM) of 1.11 and a relative viability (AZD5582 + Alpelisib; first compound 0.01581 µM) of 0.968. The relative viability (AZD5582 + Alpelisib; first compound 0.05 µM) was 1.08, the relative viability (AZD5582 + Dasatinib; first compound 0.001581 µM) was 0.424 and the relative viability (AZD5582 + Dasatinib; first compound 0.005 µM) was 0.455. The relative viability (AZD5582 + Dasatinib; first compound 0.01581 µM) was 0.447, the relative viability (AZD5582 + Dasatinib; first compound 0.05 µM) was 0.414 and the relative viability (Temozolomide + Foretinib; first compound 0.2 µM) was 1.11. For the same cell line, the relative viability (Temozolomide + Foretinib; first compound 0.6325 µM) was 1.06, the relative viability (Temozolomide + Foretinib; first compound 2 µM) was 1.16 and the relative viability (Temozolomide + Foretinib; first compound 6.325 µM) was 0.872. The relative viability (Temozolomide + Foretinib; first compound 20 µM) was 0.57, the relative viability ([1]; first compound 0.2 µM) was 0.774 and the relative viability ([1]; first compound 0.6325 µM) was 0.646. For the same cell line, the relative viability ([1]; first compound 2 µM) was 0.692, the relative viability ([1]; first compound 6.325 µM) was 0.632 and the relative viability ([1]; first compound 20 µM) was 0.333.
